Columns and labels:
[1] = tested on: MERTK-expressing M1 macrophages; assay: Macrophage viability assay, M1; details: 4 days of treatment in differentiating medium
Procedure: Macrophage Viability Assay
(§1) Peripheral blood mononuclear cells (PBMCs) were prepared from buffy coats of healthy donors by Histopaque-1077 (Sigma, 10771) density gradient centrifugation at 250×g at room temperature for 30 min. The intermediate layer containing PBMCs was collected and cells were washed with PBS/2 mM EDTA three times. Human monocytes were isolated from PBMCs by magnetic separation using human Classical Monocyte Isolation Kit (Miltenyi, 130-117-337) according to the manufacturer's instructions. Eighty thousand monocytes per well were cultured on 96-well plates in 150 μL PBMC medium (RPMI 1640 medium (Gibco, 11875093) containing 10% human AB serum, 10% FBS, L-glutamine, penicillin, and streptomycin) at 37° C. with 5% CO2. Monocytes were treated with GM-CSF (20 ng/mL; Biolegend, 766102) or M-CSF (50 ng/mL; Biolegend, 574804) for 8 days to differentiate to M1 or M2 macrophages, respectively. […] On day 4, 100 μL of CellTiter-Glo 2.0 Cell Viability Assay reagent (Promega, G9241) was added to each well, incubated for 10 mins and the luminescence signal was detected with a GloMax Discover Microplate Reader (Promega). The mean relative luminometer units (RLU) from duplicate wells were plotted with GraphPad Prism.

[2] = tested on: MERTK-expressing M2 macrophages; assay: Macrophage viability assay, M2; details: 4 days of treatment in differentiating medium
Procedure: Macrophage Viability Assay
as §1

Structure (SMILES): CCCCNc1ncc2c(-c3ccc(S(=O)(=O)N4CCOCC4)cc3)nn(C3CCC(O)CC3)c2n1 (centres unmarked) [UNC1062, reference compound]
- viability of M1 macrophages (CellTiter-Glo 2.0) [1]: neither z10 nor z10-MMAE nor z10-SN-38 nor the MERTK inhibitor UNC1062 affect the viability
- viability of M2 macrophages (CellTiter-Glo 2.0) [2]: neither z10 nor z10-MMAE nor z10-SN-38 nor the MERTK inhibitor UNC1062 affect the viability

Source: patent publication US11242407B2, “High-affinity anti-MERTK antibodies and uses thereof” (Rgenix, Inc., priority 2019, dated 2022)
